The subject of data set [1] is human malignant melanoma cell line (A-375). Nature of the data set: Cytotoxicity in A-375 cells, CellTiter-Glo ATP viability, 48-h incubation. The format is cell-based. Particulars: for CC50 / cytotoxicity at 50 µM: Homo sapiens, 48 h; for CC50: A-375, 48 h, cytotoxic concentration that caused death of 50% cells; for CC50 / cytotoxicity at 50 µM / Cytotoxic activity in A-375 cells (in words): A-375 cells; for cytotoxicity at 50 µM: read-out: Primary Test Result (Cytotoxicity % at 50 µM in A-375 Cells); for Selectivity Index: ratio of CC50 in Hs27 fibroblasts over CC50 in A-375 melanoma cells; for Cytotoxic activity in A-375 cells (in words): SAR discussion. As for the experimental part:
(§1) Human malignant melanoma cell line A-375 was kindly provided by Prof. Marikki Laiho (University of Helsinki, Finland) and Hs27 human skin fibroblast cell line was kindly provided by Dr. Carmen Escobedo-Lucea (University of Helsinki, Finland). The cells were maintained in Glutamax high glucose Dulbecco’s Modified Eagle’s Medium (DMEM, Gibco), supplemented with 10% fetal bovine serum (FBS, Gibco), at 37 °C, 5% CO2.
(§2) The cells were seeded to white frame and clear bottom 96-well plates (Perkin Elmer) at the density of 10,000 cells/well for A-375 cell line and 7500 cells/well for Hs27 cell line. The cells were grown at 37 °C, 5% CO2 until they reached 70–80% confluence (approximately 24 h). Stock solutions of test compounds and a positive control (camptothecin, Sigma-Aldrich, Saint Louis, MO, USA) were prepared in DMSO and diluted into assay medium (growth medium with 5% FBS) to the final concentration. Final DMSO concentration was 0.5% in all samples. The culture medium was removed from the plate and compounds added, 200 µL/well. After 48-h incubation, the amount of ATP, which is directly proportional to the number of cells present in culture, was quantified using CellTiter-Glo® Luminescent Cell Viability kit (Promega, Madison, WI, USA), according to manufacturer’s instructions.
(§3) Origin Graphing and Analysis, version 8.6 (OriginLab, Northampton, MA, USA) was used for determination of CC50 values. The cancer cell selectivity index (SI) was calculated as a ratio of CC50 values between Hs27 fibroblasts and A-375 melanoma cells.
On the technique in general: ATP-based viability assays read luminescence as a measure of living cells.

Data set [2] is described as follows: Cytotoxicity in Hs27 cells, CellTiter-Glo ATP viability, 48-h incubation. Particulars: human, Hs27 normal skin fibroblast cells, Hs27 normal fibroblasts. Format: cell-based. Here is the method: as §1, §2, §3
Data set [3] has as its system A2780S, A2780CP (SCP5), A549, MCF7, U251MG cells and NIH3T3. More on the design: method as in PMID 26711149. As to conditions: cited from earlier work.
Data set [4] concerns human cervical carcinoma HeLa cells. More on the design: method as in doi:10.1016/j.tetlet.2010.07.016. As to conditions: cited from earlier work.

The values below come from publication PMC6316490, “Synthesis and Antiproliferative Activity of Marine Bromotyrosine Purpurealidin I and Its Derivatives” (Marine Drugs, 2018).

Usually CC50 stands for the concentration giving 50% cytotoxicity. A higher CC50 goes with lower toxicity to the cells. The melting point is the temperature, or range, at which the solid turns liquid.

In the case of `CC[C@@]1(O)C(=O)OCc2c1cc1n(c2=O)Cc2cc3ccccc3nc2-1` [Camptothecin, reference compound], in data set [1], the midpoint of cytotoxicity, the CC50, lay at 0.06 µM; the cytotoxicity at 50 µM turned out to be 94.7%; the “Selectivity Index” value is 92.3. Also, the 50% cytotoxic concentration (CC50) at 48 h in data set [2] came to 5.54 µM.
Take `CNCCCOc1c(Br)cc(CCNC(=O)/C(Cc2cc(Br)c(OC)c(Br)c2)=N/O)cc1Br` [Compound 1, (E)-N-[3,5-Dibromo-4-[3-(methylamino)propoxy]phenethyl]-3-(3,5-dibromo-4-methoxyphenyl)-2-(hydroxyimino)propenamide]: the “Selectivity between A-375 and Hs27 (in words)” value in data set [1] (A-375 vs Hs27) is listed as “no selectivity”. For the same compound, in data set [1], the CC50 was 4.3 µM, the cytotoxicity at 50 µM was 97.9% and the “Selectivity Index” value was 1.2. Moreover, the midpoint of cytotoxicity in data set [2], the CC50 at 48 h, lay at 5.2 µM. For the same compound, in data set [3], the “Cytotoxicity against various cancer cell lines and non-cancer NIH3T3 (in words)” value is given as “cytotoxic”.
Consider `COc1c(Br)cc(C/C(=N\O)C(=O)NCCc2cc(Br)c(OCCCN)c(Br)c2)cc1Br` [Compound 3], for which the “Cytotoxic effect on HeLa cells (in words)” value in data set [4] is given as “comparably strong cytotoxic effect”.
Consider `COc1c(Br)cc(C/C(=N\O)C(=O)NCCc2cc(Br)c(O)c(Br)c2)cc1Br` [Compound 4], for which the “Cytotoxic effect on HeLa cells (in words)” value in data set [4] is recorded as “comparably strong cytotoxic effect”.
For the compound `COc1c(Br)cc(C/C(=N\O)C(=O)NCCc2cc(Br)c(OCCCN(C)C)c(Br)c2)cc1Br` [Compound 29, (E)-N-[3,5-Dibromo-4-[3-(dimethylamino)propoxy]phenethyl]-3-(3,5-dibromo-4-methoxyphenyl)-2-(hydroxyimino)propanamide], in data set [1], the CC50 was determined as 6.3 µM, the cytotoxicity at 50 µM was 99.9% and the “Selectivity Index” value was determined as 0.7. Besides, in data set [2], half-maximal cytotoxicity (CC50 at 48 h) was put at 4.5 µM.
`COc1c(Br)cc(C/C(=N\O)C(=O)Nc2ccc(Cl)c(Cl)c2)cc1Br` [Compound 30, (E)-3-(3,5-Dibromo-4-methoxyphenyl)-N-(3,4-dichlorophenyl)-2-(hydroxyimino)propanamide]: the melting point was 198 °C (dec.). For the same compound, in data set [1], the CC50 came out at 13.1 µM, the cytotoxicity at 50 µM was 101% and the “Selectivity Index” value is 1.2. For the same compound, half-maximal cytotoxicity in data set [2] (CC50 at 48 h) was put at 15.2 µM.
Regarding `COc1c(Br)cc(C/C(=N\O)C(=O)NCc2ccc(Cl)c(Cl)c2)cc1Br` [Compound 31, (E)-3-(3,5-Dibromo-4-methoxyphenyl)-N-(3,4-dichlorobenzyl)-2-(hydroxyimino)propanamide], in data set [1], the CC50 was 12.4 µM, the cytotoxicity at 50 µM was 99.7% and the “Selectivity Index” value is listed as 1.8. Further, the midpoint of cytotoxicity in data set [2], the CC50 at 48 h, lay at 22.3 µM.
`COc1c(Br)cc(C/C(=N\O)C(=O)Nc2ccc(Cl)c(C(F)(F)F)c2)cc1Br` [Compound 32, (E)-N-[4-Chloro-3-(trifluoromethyl)phenyl]-3-(3,5-dibromo-4-methoxyphenyl)-2-(hydroxyimino) propanamide]: in data set [1], the CC50 worked out at 10.3 µM, the cytotoxicity at 50 µM worked out at 99.8% and the “Selectivity Index” value came to 1.2. Moreover, the CC50 at 48 h in data set [2] was 12 µM.
The corresponding values for `COc1ccc(NC(=O)/C(Cc2cc(Br)c(OC)c(Br)c2)=N/O)cc1Cl` [Compound 33, (E)-N-(3-Chloro-4-methoxyphenyl)-3-(3,5-dibromo-4-methoxyphenyl)-2-(hydroxyimino)propanamide] are 13.5 µM, 98.9%, 2.0 and 26.4 µM.
The corresponding values for `COc1ccc(NC(=O)/C(Cc2cc(Br)c(OC)c(Br)c2)=N/O)cc1Br` [Compound 34, (E)-N-(3-Bromo-4-methoxyphenyl)-3-(3,5-dibromo-4-methoxyphenyl)-2-(hydroxyimino)propanamide] are 16.2 µM, 100%, 1.4 and 22.5 µM.
For `COc1c(Br)cc(C/C(=N\O)C(=O)Nc2cc(Cl)cc(Cl)c2)cc1Br` [Compound 35, (E)-3-(3,5-Dibromo-4-methxyphenyl)-N-(3,5-dichlorophenyl)-2-(hydroxyimino)propanamide] the same measures were 9.6 µM, 101%, 1.3 and 12.2 µM.
For the compound `COc1c(Br)cc(C/C(=N\O)C(=O)Nc2ccccn2)cc1Br` [Compound 36, (E)-3-(3,5-Dibromo-4-methoxyphenyl)-2-(hydroxyimino)-N-(pyridin-2-yl)propanamide], the melting point was 192 to 196 °C (dec.). In data set [1], it took 4.7 µM to reach half-maximal cytotoxicity (CC50), the cytotoxicity at 50 µM worked out at 84.7% and the “Selectivity Index” value is listed as 4.1. In data set [2], this compound displayed a CC50 at 48 h of 19.4 µM.
As to `COc1c(Br)cc(C/C(=N\O)C(=O)Nc2cccnc2)cc1Br` [Compound 37, (E)-3-(3,5-Dibromo-4-methoxyphenyl)-2-(hydroxyimino)-N-(pyridin-3-yl)propanamide], in data set [1], the CC50 is 26.4 µM and the cytotoxicity at 50 µM came out at 83.5%.
Consider `COc1c(Br)cc(C/C(=N\O)C(=O)Nc2ccncc2)cc1Br` [Compound 38, (E)-3-(3,5-Dibromo-4-methoxyphenyl)2-(hydroxyimino)-N-(pyridin-4-yl)propanamide], for which the cytotoxicity at 50 µM in data set [1] is 71.1%.
As for `COc1c(Br)cc(C/C(=N\O)C(=O)NCc2cccnc2)cc1Br` [Compound 39, (E)-3-(3,5-Dibromo-4-methoxyphenyl)-2-(hydroxyimino)-N-(pyridin-3-ylmethyl)propanamide], in data set [1], the CC50 was 22.1 µM, the cytotoxicity at 50 µM was 93.2% and the “Cytotoxic activity in A-375 cells (in words)” value (shortened to “Cytotoxic activity”) is “retained the activity”.
On to `COc1c(Br)cc(C/C(=N\O)C(=O)Nc2ccc(N(C)C)cc2)cc1Br` [Compound 40, (E)-3-(3,5-Dibromo-4-methoxyphenyl)-N-[4-(dimethylamino)phenyl]-2-(hydroxyimino)propanamide], for which, in data set [1], half-maximal cytotoxicity (CC50) was put at 27.8 µM and the cytotoxicity at 50 µM was 99.1%.
Consider `COc1ccc(C/C(=N\O)C(=O)Nc2ccc(OC)c(Br)c2)cc1Br` [Compound 41, (E)-N,3-Bis(3-bromo-4-methoxyphenyl)-2-(hydroxyimino)propanamide], for which, in data set [1], half-maximal cytotoxicity (CC50) was put at 19.8 µM, the cytotoxicity at 50 µM was determined as 99.2% and the “Cytotoxic activity” value is listed as “showed activity”.
Take `COc1ccc(C/C(=N\O)C(=O)Nc2ccccn2)cc1Br` [Compound 42, (E)-3-(3-Bromo-4-methoxyphenyl)-2-(hydroxyimino)-N-(pyridin-2-yl)propanamide]: the melting point is 214 to 217 °C (dec.). Further, in data set [1], the cytotoxicity at 50 µM was 2.7% and the “Cytotoxic activity” value is “inactive”.
For `COc1ccc(C/C(=N\O)C(=O)NCc2ccc(Cl)c(Cl)c2)cc1` [Compound 43, (E)-N-(3,4-Dichlorobenzyl)-2-(hydroxyimino)-3-(4-methoxyphenyl)propanamide], the cytotoxicity at 50 µM in data set [1] came to 21.5%.
On to `COc1ccc(C/C(=N\O)C(=O)Nc2ccccn2)cc1` [Compound 44, (E)-2-(Hydroxyimino)-3-(4-methoxyphenyl)-N-(pyridin-2-yl)propanamide], for which, in data set [1], the cytotoxicity at 50 µM was found to be 0.4% and the “Cytotoxic activity” value is “inactive”.
For `COc1ccc(C/C(=N\O)C(=O)Nc2ccccn2)cc1Cl` [Compound 45, (E)-3-(3-Chloro-4-methoxyphenyl)-2-(hydroxyimino)-N-(pyridin-2-yl)propanamide] the same measures were 4% and “inactive”.
